# Experimental data taken from patent US20240033124A1, “DRUG DELIVERY CONTACT LENS AND OPHTHALMIC PHARMACEUTICAL COMPOSITION” (DAE WON PHARMACEUTICAL CO., LTD, priority 2021, published 2024).
# Assay: Drug release test according to blocking ratio of chamber unit (Franz diffusion cell)
# Assay type: physicochemical
# Protocol: In order to evaluate drug release characteristics according to the size of the blocking unit (blocking film) that is bonded to the chamber unit, which is for storing the drug, and is for blocking the release of the drug stored in the chamber unit, contact lenses for drug delivery of FIG. 4 having various blocking ratios were prepared.
# Specifically, contact lenses for drug delivery bonded to blocking units (blocking films) capable of blocking a […], with respect to a total area of the chamber unit were prepared, a drug was injected into each chamber unit, and drug release characteristics were evaluated.
# The drug release test was conducted by putting the contact lens for drug delivery into a Franz diffusion cell and evaluating, and the test was conducted while maintaining the temperature at 37.0±0.5° C. and by using a phosphate buffer solution of pH 7.4. A solution in which lifitegrast was dissolved in distilled water was injected into the chamber unit of contact lenses for drug delivery, and the contact lenses were mounted on a donor. In addition, the experiment was conducted in a manner that 5 mL of the solution in which the drug was released was collected with a syringe from each container, and filled with the same amount of buffer solution at a predetermined sampling time (0.5, 1, 1.5, 2, 3, 4, 6 hours), after 5 mL of the solution containing the collected drug was filtered through a syringe filter, 2 mL each was put into a vial and used as a test solution, and the obtained test solution was analyzed by using high-performance liquid chromatography (HPLC).
structure (smiles),measurement,setting,value
CS(=O)(=O)c1cccc(C[C@H](NC(=O)c2c(Cl)cc3c(c2Cl)CCN(C(=O)c2ccc4ccoc4c2)C3)C(=O)O)c1 [lifitegrast],Cumulative drug release (%),"blocking ratio 0%, 0 h",0%
same,Cumulative drug release (%),"blocking ratio 0%, 0.5 h",95%
same,Cumulative drug release (%),"blocking ratio 0%, 1 h",100%
same,Cumulative drug release (%),"blocking ratio 0%, 1.5 h",100%
same,Cumulative drug release (%),"blocking ratio 0%, 2 h",100%
same,Cumulative drug release (%),"blocking ratio 0%, 3 h",100%
same,Cumulative drug release (%),"blocking ratio 0%, 4 h",100%
same,Cumulative drug release (%),"blocking ratio 0%, 5 h",100%
same,Cumulative drug release (%),"blocking ratio 0%, 6 h",100%
same,Cumulative drug release (%),"blocking ratio 2.5%, 0 h",0%
same,Cumulative drug release (%),"blocking ratio 2.5%, 0.5 h",90%
same,Cumulative drug release (%),"blocking ratio 2.5%, 1 h",95%
same,Cumulative drug release (%),"blocking ratio 2.5%, 1.5 h",100%
same,Cumulative drug release (%),"blocking ratio 2.5%, 2 h",100%
same,Cumulative drug release (%),"blocking ratio 2.5%, 3 h",100%
same,Cumulative drug release (%),"blocking ratio 2.5%, 4 h",100%
same,Cumulative drug release (%),"blocking ratio 2.5%, 5 h",100%
same,Cumulative drug release (%),"blocking ratio 2.5%, 6 h",100%
same,Cumulative drug release (%),"blocking ratio 50%, 0 h",0%
same,Cumulative drug release (%),"blocking ratio 50%, 0.5 h",86%
same,Cumulative drug release (%),"blocking ratio 50%, 1 h",90%
same,Cumulative drug release (%),"blocking ratio 50%, 1.5 h",93%
same,Cumulative drug release (%),"blocking ratio 50%, 2 h",96%
same,Cumulative drug release (%),"blocking ratio 50%, 3 h",100%
same,Cumulative drug release (%),"blocking ratio 50%, 4 h",100%
same,Cumulative drug release (%),"blocking ratio 50%, 5 h",100%
same,Cumulative drug release (%),"blocking ratio 50%, 6 h",100%
same,Cumulative drug release (%),"blocking ratio 75%, 0 h",0%
same,Cumulative drug release (%),"blocking ratio 75%, 0.5 h",61%
same,Cumulative drug release (%),"blocking ratio 75%, 1 h",77%
same,Cumulative drug release (%),"blocking ratio 75%, 1.5 h",83%
same,Cumulative drug release (%),"blocking ratio 75%, 2 h",87%
same,Cumulative drug release (%),"blocking ratio 75%, 3 h",91%
same,Cumulative drug release (%),"blocking ratio 75%, 4 h",94%
same,Cumulative drug release (%),"blocking ratio 75%, 5 h",97%
same,Cumulative drug release (%),"blocking ratio 75%, 6 h",100%
same,Cumulative drug release (%),"blocking ratio 85%, 0 h",0%
same,Cumulative drug release (%),"blocking ratio 85%, 0.5 h",49%
same,Cumulative drug release (%),"blocking ratio 85%, 1 h",59%
same,Cumulative drug release (%),"blocking ratio 85%, 1.5 h",65%
same,Cumulative drug release (%),"blocking ratio 85%, 2 h",73%
same,Cumulative drug release (%),"blocking ratio 85%, 3 h",79%
same,Cumulative drug release (%),"blocking ratio 85%, 4 h",87%
same,Cumulative drug release (%),"blocking ratio 85%, 5 h",93%
same,Cumulative drug release (%),"blocking ratio 85%, 6 h",98%
same,Cumulative drug release (%),"blocking ratio 95%, 0 h",0%
same,Cumulative drug release (%),"blocking ratio 95%, 0.5 h",33%
same,Cumulative drug release (%),"blocking ratio 95%, 1 h",41%
same,Cumulative drug release (%),"blocking ratio 95%, 1.5 h",51%
same,Cumulative drug release (%),"blocking ratio 95%, 2 h",59%
same,Cumulative drug release (%),"blocking ratio 95%, 3 h",71%
same,Cumulative drug release (%),"blocking ratio 95%, 4 h",83%
same,Cumulative drug release (%),"blocking ratio 95%, 5 h",90%
same,Cumulative drug release (%),"blocking ratio 95%, 6 h",94%
same,Cumulative drug release (%),"blocking ratio 100%, 0 h",0%
same,Cumulative drug release (%),"blocking ratio 100%, 0.5 h",0%
same,Cumulative drug release (%),"blocking ratio 100%, 1 h",0%
same,Cumulative drug release (%),"blocking ratio 100%, 1.5 h",0%
same,Cumulative drug release (%),"blocking ratio 100%, 2 h",0%
same,Cumulative drug release (%),"blocking ratio 100%, 3 h",0%
same,Cumulative drug release (%),"blocking ratio 100%, 4 h",0%
same,Cumulative drug release (%),"blocking ratio 100%, 5 h",0%
same,Cumulative drug release (%),"blocking ratio 100%, 6 h",0%
